Experimental data published in patent US4681879A, “11-substituted 5H,11H-pyrrolo[2,1-c][1,4]benzoxazepines as antipsychotic and analgesic agents” (Hoechst-Roussel Pharmaceuticals Inc., priority 1985, dated 1987).
Counter-ions that a name gives are not always drawn.

Legend:
[1] = tested on: apomorphine climbing; test: Antipsychotic activity, climbing mice assay (apomorphine); format: in vivo, mice (CK-1 male); conditions: Mus musculus; ip, 30 minutes prior to apomorphine 1.5 mg/kg sc
Protocol: Antipsychotic activity is determined in the climbing mice assay by methods similar to those described by P. Protais, et al., Psychopharmacol., 50, 1 (1976) and B. Costall, Eur. J. Pharmacol., 50, 39 (1978).
The subject CK-1 male mice (23-27 grams) are group-housed under standard laboratory conditions. The mice are individually placed in wire mesh stick cages (4"×4" by 10") and are allowed one hour for adaptation and exploration of the new environment. Then apomorphine is injected subcutaneously at 1.5 mg/kg, a dose causing climbing in all subjects for 30 minutes. Compounds to be tested for antipsychotic activity are injected intraperitoneally 30 minutes prior to the apomorphine challenge at a screening dose of 10 mg/kg.
For evaluation of climbing, 3 readings are taken at 10, 20 and 30 minutes after apomorphine administration according to the following scale: […]
______________________________________
4 paws on bottom (no climbing)
2 paws on the wall (rearing)
4 paws on the wall (full climb)
Mice consistently climbing before the injection of apomorphine are discarded.
With full-developed apomorphine climbing, the animals are hanging onto the cage walls, rather motionless, over longer periods of time. By contrast, climbs due to mere motor stimulation usually last only a few seconds.
The climbing scores are individually totaled (maximum score: 6 per mouse over 3 readings) and the total score of the control group (vehicle intraperitoneally-apomorphine subcutaneously) is seet to 100%. ED50 values with 95% confidence limits, calculated by a linear regression analysis of some of the compounds of this invention are presented in Table 1.

[2] = tested on: 2-phenyl-1,4-benzoquinone-induced writhing; test: Analgesic activity, 2-phenyl-1,4-benzoquinone-induced writhing test in mice; format: in vivo; conditions: Mus musculus, sc; read-out: ANALGESIC ACTIVITY (Phenylquinone Writhing) ED50
Excerpt: Compounds of the present invention are useful as analgesic agents due to their ability to alleviate pain in mammals. […] Exptl. Biol. Med., 95, 729 (1957)].

SMILES	ED50 [1]	ED50 [2]
O=C(CCN1CCC(C2Oc3ccccc3Cn3cccc32)CC1)c1ccc(Cl)cc1 (stereo not drawn) [1-(4-Chlorophenyl)-3-[4-]5H,11H-pyrrolo[2,1-c][1,4]benzoxazepin-11-yl]-1-piperidinyl]-1-propanone]	5.5 mg/kg	–
O=C(CCN1CCC(C2Oc3ccccc3Cn3cccc32)CC1)c1ccccc1.O=C(O)C(=O)O (stereo not drawn) [1-Phenyl-3-[4-[5H,11H-pyrrolo[2,1-c][1,4]benzoxazepin-11-yl]-1-piperidinyl]-1-propanone oxalate]	1.6 mg/kg	1.6 mg/kg
CCCCN1CCC(C2Oc3ccccc3Cn3cccc32)CC1 (stereo not drawn) [11-[(1-Butyl)piperidin-4-yl]-5H,11H-pyrrolo[2,1-c][1,4]benzoxazepine]	3.8 mg/kg	0.4 mg/kg
O=C(O)C(=O)O.O=c1[nH]c2ccccc2n1CCN1CCC(C2Oc3ccccc3Cn3cccc32)CC1 (stereo not drawn) [11-{1-[2-(1,3-Dihydro-2-oxo-2H-benzimidazol-1-yl)ethyl]piperidin-4-yl}-5H,11H-pyrrolo[2,1-c][1,4]benzoxazepine oxalate]	3.2 mg/kg	0.9 mg/kg
COc1cccc(CCN2CCC(C3Oc4ccccc4Cn4cccc43)CC2)c1OC.O=C(O)/C=C/C(=O)O (stereo not drawn) [11-{1-[2-(2,3-Dimethoxyphenyl)ethyl]piperidin-4-yl}-5H,11H-pyrrolo[2,1-c][1,4]benzoxazepine fumarate]	3 mg/kg	–
c1csc(CCN2CCC(C3Oc4ccccc4Cn4cccc43)CC2)c1 (stereo not drawn) [11-{1-[2-(2-Thienyl)ethyl]piperidin-4-yl}-5H,11H-pyrrolo[2,1-c][1,4benzoxazepine]	1.8 mg/kg	–
COc1ccc(CCN2CCC(C3Oc4ccccc4Cn4cccc43)CC2)cc1OC (stereo not drawn) [11-{1-[2-(3,4-Dimethoxyphenyl)ethyl]piperidin-4-yl}-5H,11H-pyrrolo[2,1-c][1,4]benzoxazepine]	0.3 mg/kg	0.1 mg/kg
COc1cccc(CCN2CCC(C3Oc4ccccc4Cn4cccc43)CC2)c1 (stereo not drawn) [11-{1-[2-(3-Methoxyphenyl)ethyl]piperidin-4-yl}-5H,11H-pyrrolo[2,1-c][1,4]benzoxazepine]	0.9 mg/kg	–
Clc1ccc(CCN2CCC(C3Oc4ccccc4Cn4cccc43)CC2)cc1 (stereo not drawn) [11-{1-[2-(4-Chlorophenylethyl)]piperidin-4-yl}-5H,11H-pyrrolo[2,1-c][1,4]benzoxazepine]	2.1 mg/kg	–
CN(C)c1ccc(CCN2CCC(C3Oc4ccccc4Cn4cccc43)CC2)cc1 (stereo not drawn) [11-{1-[2-(4-Dimethylaminophenylethyl)]piperidin-4-yl}-5H,11H-pyrrolo[2,1-c][1,4]benzoxazepine]	1.2 mg/kg	0.4 mg/kg
CCOc1ccc(CCN2CCC(C3Oc4ccccc4Cn4cccc43)CC2)cc1 (stereo not drawn) [11-{1-[2-(4-Ethoxyphenylethyl)]piperidin-4-yl}-5H,11H-pyrrolo[2,1-c][1,4]benzoxaxepine]	1.3 mg/kg	1.9 mg/kg
Fc1ccc(CCN2CCC(C3Oc4ccccc4Cn4cccc43)CC2)cc1.O=C(O)C(=O)O (stereo not drawn) [11-{1-[2-(4-Fluorophenyl)ethyl]piperidin-4-yl}-5H,11H-pyrrolo[2,1-c][1,4]benzoxazepine oxalate]	3.1 mg/kg	–
Oc1ccc(CCN2CCC(C3Oc4ccccc4Cn4cccc43)CC2)cc1 (stereo not drawn) [11-{1-[2-(4-Hydroxyphenyl)ethyl]piperidin-4-yl}-5H,11H-pyrrolo[2,1-c][1,4]benzoxazepine]	0.3 mg/kg	–
COc1ccc(CCN2CCC(C3Oc4ccccc4Cn4cccc43)CC2)cc1.O=C(O)C(=O)O (stereo not drawn) [11-{1-[2-(4-Methoxyphenyl)ethyl]piperidin-4-yl}-5H,11H-pyrrolo[2,1-c][1,4]benzoxazepine oxalate]	0.3 mg/kg	0.3 mg/kg
Cc1ccc(CCN2CCC(C3Oc4ccccc4Cn4cccc43)CC2)cc1 (stereo not drawn) [11-{1-[2-(4-Methylphenyl)ethyl]piperidin-4-yl}-5H,11H-pyrrolo[2,1-c][1,4]benzoxazepine]	1.2 mg/kg	–
O=[N+]([O-])c1ccc(CCN2CCC(C3Oc4ccccc4Cn4cccc43)CC2)cc1 (stereo not drawn) [11-{1-[2-(4-Nitrophenylethyl)]piperidin-4-yl}-5H,11H-pyrrolo[2,1-c][1,4]benzoxazepine]	3.5 mg/kg	4.1 mg/kg
O=C(O)C(=O)O.c1ccc(CCN2CCC(C3Oc4ccccc4Cn4cccc43)CC2)cc1 (stereo not drawn) [11-{1-[2-(Phenyl)ethyl]piperidin-4-yl}-5H,11H-pyrrolo[2,1-c][1,4]benzoxazepine oxalate]	3.1 mg/kg	–
O=C(O)C(=O)O.O=c1[nH]c2ccccc2n1CCCN1CCC(C2Oc3ccccc3Cn3cccc32)CC1 (stereo not drawn) [11-{1-[3-(1,3-Dihydro-2-oxo-2H-benzimidazol-1-yl)propyl]piperidin-4-yl}-5H,11H-pyrrolo[2,1-c][1,4]benzoxazepine oxalate]	0.7 mg/kg	0.3 mg/kg
Cc1[nH]c2ccccc2c1CCCN1CCC(C2Oc3ccccc3Cn3cccc32)CC1.O=C(O)C(=O)O (stereo not drawn) [11-{1-[3-(2-Methylindol-3-yl)propyl]piperidin-4-yl}-5H,11H-pyrrolo[2,1-c][1,4]benzoxazepine oxalate]	2.3 mg/kg	–
Fc1ccc2c(CCCN3CCC(C4Oc5ccccc5Cn5cccc54)CC3)noc2c1.O=C(O)C(=O)O (stereo not drawn) [11-{1-[3-(6-Fluoro-1,2-benzisoxazol-3-yl)propyl]piperidin-4-yl}-5H,11H-pyrrolo[2,1-c][1,4]benzoxazepine oxalate]	2.1 mg/kg	5.1 mg/kg
c1ccc(OCCCN2CCC(C3Oc4ccccc4Cn4cccc43)CC2)cc1 (stereo not drawn) [11-{1-[3-(Phenoxy)propyl]piperidin-4-yl}-5H,11H-pyrrolo[2,1-c][1,4]benzoxazepine]	1.2 mg/kg	4.2 mg/kg
c1ccc(CCCN2CCC(C3Oc4ccccc4Cn4cccc43)CC2)cc1 (stereo not drawn) [11-{1-[3-(Phenyl)propyl]piperidin-4-yl}-5H,11H-pyrrolo[2,1-c][1,4[benzoxazepine oxalate]	2 mg/kg	–
